We go through 9 molecules from publication PMC5827532, “Triphenylphosphonium Moiety Modulates Proteolytic Stability and Potentiates Neuroprotective Activity of Antioxidant Tetrapeptides in Vitro” (Frontiers in Pharmacology, 2018).

Where two headings read alike, the source gives them in different places.

Data set [1] relates to PC-12 cells. The protocol:
(§1) PC-12 cells were subjected to oxidative damage by CoCl2, L-glutamic acid, or menadione and treated with the oligopeptides as follows. Briefly, the pre-grown cells were seeded in a 96-well plate at a density of 60 000 cells per well and cultured overnight in FBS-containing α-MEM. Next day, the medium was replaced by a fresh one without FBS, and further manipulations were performed in FBS-free medium. The oxidative agents and oligopeptides were supplemented to the medium in three ways: (i) the cells were pre-cultured in the presence of oligopeptides for 24 h, then the medium was replaced by a fresh one supplemented with a damaging factor and the cells were further cultured with the factor for 24 h (CoCl2, L-glutamic acid) or 3 h (menadione) (‘pretreatment’); (ii) the damaging factor and oligopeptide were added together to cells and cultured for 24 h (CoCl2, L-glutamic acid) or 3 h (menadione) followed by medium replacement (‘cotreatment’); (iii) following treatment with menadione, the cells were additionally cultured with the oligopeptides for 24 h (‘posttreatment’). The concentration of compounds was as follows: oligopeptides 5 mM, CoCl2 2.5 mM, L-glutamic acid 50 mM, menadione 25 μM.
(§2) Eventually, viability of the treated cells was evaluated with the use of MTS assay (Promega) on an Infinite M200 PRO microplate analyzer (TECAN). The cell viability was presented as a percentage of that of the control cells cultured in the absence of compounds (100% viability).

The subject of data set [2] is PC-12 cells. Kind of data set: Cytoprotection against L-glutamic acid-induced damage (MTS assay). To be noted: 50 mM LGlu. The protocol:
as §1, §2
(Tetrazolium assays rely on reduction of a dye to a coloured formazan, in cell work by metabolically active cells.)

Data set [3] relates to prostate cancer (PC-3) cells. Conditions: same supplementation; ref Akhmadishina et al., 2017; cited from earlier work.
The conditions of data set [4]: same reaction; ref Akhmadishina et al., 2017; cited from earlier work.
Data set [5] relates to PC-12 cells. Nature of the data set: H2O2-induced oxidative stress in cells (DCFDA fluorescence). Conditions: 5 mM, 1 h, 100 mM H2O2, HBSS. Type of data set: cell-based, rat. The protocol:
PC-12 cells were seeded in a 96-well plate and allowed to form a subconfluent monolayer. The cells were washed with Hank’s balanced salt solution (HBSS), pre-stained with 20 μM DCFDA and rewashed with HBSS two times. The oxidative stress in the stained cells was induced by incubating them in HBSS solution containing 100 mM H2O2 for 1 h in CO2-incubator. The synthesized oligopeptides or glutathione were added to the extracellular solution in the concentration range from 1 to 10 mM in HBSS and incubated for 1 h. The bottom fluorescent signal was acquired from the treated cells on an Infinite M200PRO microplate analyzer (TECAN) at λex = 488 nm and λem = 535 nm.

Data set [6] deals with PC-12 cells. Nature of the data set: Cytoprotection against menadione-induced damage (MTS assay). Conditions: for protective effect: pretreatment 24 h, 5 mM, menadione 25 μM. The protocol: (§3) PC-12 cells were subjected to oxidative damage by CoCl2, L-glutamic acid, or menadione and treated with the oligopeptides as follows. Briefly, the pre-grown cells were seeded in a 96-well plate at a density of 60 000 cells per well and cultured overnight in FBS-containing α-MEM. Next day, the medium was replaced by a fresh one without FBS, and further manipulations were performed in FBS-free medium.
as §2

Assay in data set [7]: as above
Conditions: rat, PC-12 cells. Here is the method:
as §3, §2

For data set [8], the target named is T1, trypsin (Sus scrofa, UniProt P00761).
T1 construct: purchased PanEco company (Russia); host or cells: porcine pancreas
Kind of data set: Tryptic cleavage of oligopeptides followed by reversed-phase HPLC. The class given is in vitro ADME, porcine. Conditions: trypsin 5 μg/mL, PBS pH 7.4; for half-life at 0.5 mg/mL: pig, oligopeptide 0.5 mg/mL, read-out: 50% degradation rate (DR50). Here is the method: The reaction mixture containing an oligopeptide (0.5 mg/mL) and trypsin (5 μg/mL) in phosphate buffered saline (PBS, pH 7.4) was incubated for different time intervals, and aliquots of digestion products were collected for reversed-phase high-performance liquid chromatography (HPLC). HPLC analysis was carried out on a Dionex UltiMate 3000 system (Thermo Scientific) using a Kromasil C18 column, 5 μm, 4.6 mm × 150 mm (AkzoNobel). Mobile phase contained (A) acetonitrile with 0.1% trifluoroacetic acid, (B) milli-Q water with 0.1% trifluoroacetic acid. Gradient scheme was as follows, 0–10 min: from 100% A to 100% B, 10–20 min: 100% A to 100% B, 20–25 min: 100% B. Flow rate was 0.5 mL/min; injection volume was 10 μL. The detection was performed at wavelengths of 220 and 260 nm. Chromatographic data were collected and treated with the aid of Chromeleon 6.80 software (Thermo Scientific). Peak height of the uncleaved oligopeptides was measured to calculate remaining concentration of the oligopeptides after tryptic cleavage. Concentration values were presented as mean ± SD (n = 3).
Enzymatic cleavage of the oligopeptides was performed in PBS solution using pancreatic trypsin as a pharmacologically relevant endopeptidase ([Vlieghe et al., 2010]; [Danial et al., 2012]). To compare proteolytic resistance of the initial and TPP-modified oligopeptides, the reaction conditions were optimized to provide a relatively slow kinetics. The concentration of uncleaved oligopeptides was detected by means of HPLC. In the absence of trypsin, both the unmodified tetrapeptides and TPP derivatives were stable during at least 48 h incubation at ambient temperature.

Data set [9] deals with human skin fibroblasts (HSF). Nature of the data set: MTT proliferation (cytotoxicity) assay. The class given is cell-based. The protocol:
(§4) PC-12 rat pheochromocytoma cell line (ATTC) and human skin fibroblasts (HSF) were used. HSF were isolated as detailed in ([Tsepaeva et al., 2017]). The cells were cultured aseptically in α-MEM containing 10% fetal bovine serum (FBS), 2 mM L-glutamine, 100 U/mL penicillin and 100 μg/mL streptomycin at 37°C in humidified air atmosphere with 5% CO2.
(§5) The cytotoxicity of the oligopeptides was evaluated in the concentration range from 1 μM to 3.2 mM by means of the MTT proliferation assay in 96-well microplates as described in [Tsepaeva et al. (2017)]. The cell viability was presented as a percentage of control cells grown without compounds (100% viability value). Half-maximal inhibitory concentrations (IC50) were calculated from cell viability curves using OriginPro 8.0 software.

A short description of data set [10]: Fenton-like CoCl2/H2O2 reaction, ROS detected with DCFDA probe. Here is the method:
Fenton-like reaction was initiated by mixing 0.2 mM cobalt chloride (CoCl2) and 22 mM hydrogen peroxide (H2O2) in PBS and carried out for 60 min in the presence of or without a serially diluted oligopeptide. ROS generated in the Fenton reaction were detected by using DCFDA fluorescent probe (5 μM) at λex = 488 nm and λem = 535 nm. The effect of oligopeptides was measured as a percentage of ROS generation rate in the control reaction without effectors (100%) ([Akhmadishina et al., 2017]).

Data set [11] concerns PC-12 cells. Kind of data set: MTT proliferation (cytotoxicity) assay. The class given is cell-based, rat. Conditions: over the whole concentration range (1 μM to 3.2 mM). The protocol:
as §4, §5

The nature of data set [12]: Dynamic light scattering. Type of data set: physicochemical. To be noted: data not shown.
Data set [13] in a line: Cytoprotection against L-glutamic acid-induced damage (MTS assay). Conditions: rat. The protocol: as §1, §2

One may read the viability as a per cent measure of how many cells are alive, often set against a control. One may read the cell viability as a read-out of living cells in per cent, often relative to untreated cells.

T1 sequence (P00761 9-231): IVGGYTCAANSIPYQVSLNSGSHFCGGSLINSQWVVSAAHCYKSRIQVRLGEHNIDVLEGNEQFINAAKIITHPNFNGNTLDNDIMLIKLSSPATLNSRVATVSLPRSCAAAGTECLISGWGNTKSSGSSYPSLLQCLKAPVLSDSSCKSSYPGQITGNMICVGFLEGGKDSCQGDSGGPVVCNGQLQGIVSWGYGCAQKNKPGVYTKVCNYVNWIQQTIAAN

With `[Cl-].[Cl-].[Co+2]` [CoCl2, cobalt (II) chloride], the “cell viability, damaging factor alone” value in data set [1] (CoCl2 2.5 mM, 24 h) came to 55%.

`N[C@@H](CCC(=O)N[C@@H](CS)C(=O)NCC(=O)O)C(=O)O` [GSH, γ-Glu-Cys-Gly]: in data set [1] (cotreatment, 5 mM, CoCl2 2.5 mM), the “effect on cell damage” value is “insignificantly diminished cell damage”. In addition, the protective effect entry in data set [1] (pretreatment 24 h, 5 mM, CoCl2 2.5 mM) is given as “did not exhibit a protective effect”; in data set [2] (5 mM), “relatively low protective effect”; in [6], “not when applied prior to the treatment”. In addition, in data set [3], the effect on proliferation result is reported as “greatly stimulated proliferation”. Moreover, in [4], the EC50 was 544 ± 39 µM. For the same molecule, in data set [5], the “effect on DCFDA signal” value was “almost completely decreased the signal”. Further, the viability at 5000 µM in [6] (Rattus norvegicus, PC-12, 24 h, read-out: cell viability) stood at 32%.

In data set [7], `CC1=CC(=O)c2ccccc2C1=O` [Men, menadione] registered a viability at 3 h, 25 μM of roughly 17%.

Consider `N=C(N)NCCC[C@H](NC(=O)[C@H](Cc1ccc(O)cc1)NC(=O)CC[P+](c1ccccc1)(c1ccccc1)c1ccccc1)C(=O)N[C@@H](Cc1ccccc1)C(=O)N[C@@H](CCCCN)C(N)=O` [TPP-3-YRFK-NH2], for which, in [8] (pancreatic trypsin in PBS), the half-life at 0.5 mg/mL is roughly 0.767 h. The “extent of cleavage before plateau” value in [8] is on record as roughly 80%.

With `N=C(N)NCCC[C@H](NC(=O)[C@H](Cc1ccc(O)cc1)NC(=O)CCCCC[P+](c1ccccc1)(c1ccccc1)c1ccccc1)C(=O)N[C@@H](Cc1ccccc1)C(=O)N[C@@H](CCCCN)C(N)=O` [TPP-6-YRFK-NH2], in [8] (pancreatic trypsin in PBS), the half-life at 0.5 mg/mL was roughly 1.17 h. The “time during which cleavage was initially retarded” value in [8] is “approximately 60 min”. The cell viability in data set [1] (rat) is recorded as roughly 126%. Moreover, the “concentration at which cell proliferation was decreased” value in data set [9] (effect disappeared in lower and higher concentration ranges) is “around 100 μM”. Further, in data set [10] (0.2 mM CoCl2, 22 mM H2O2, PBS), the “concentrations at which the inhibitory effect toward the reaction was observed” value is greater than 250 µM. The EC50 in data set [10] (ROS generation in CoCl2/H2O2 reaction, read-out: half-maximal inhibitory concentration (EC50)) turned out to be 500 ± 25 µM. In data set [11], the increase of proliferation entry is “up to 20%”. The aggregative properties entry in data set [12] is “formed well-defined submicron aggregates”.

On to `N=C(N)NCCC[C@@H](NC(=O)[C@H](Cc1ccc(O)cc1)NC(=O)CCCCC[P+](c1ccccc1)(c1ccccc1)c1ccccc1)C(=O)N[C@@H](Cc1ccccc1)C(=O)N[C@@H](CCCCN)C(N)=O` [TPP-6-YrFK-NH2], for which the “reaction time without any degradation” value in [8] is reported as “at least 17 h”. For the same molecule, the “half-maximal inhibition of proliferation” value in data set [9] (MTT, 3 days) is “millimolar concentrations”. The protective effect result was “completely prevented cell damage” in [2] (pretreatment, supplemented 24 h prior to damage) and “effectively prevented cell damage” in data set [6]. Also, in [12], the aggregative properties entry is given as “formed well-defined submicron aggregates”.

Turning to `N=C(N)NCCC[C@H](NC(=O)[C@@H](N)Cc1ccc(O)cc1)C(=O)N[C@@H](Cc1ccccc1)C(=O)N[C@@H](CCCCN)C(N)=O` [YRFK-NH2], in data set [8] (isolated enzyme trypsin), the half-life at 0.5 mg/mL was roughly 6.17 h.

Regarding `NCCCC[C@H](NC(=O)[C@H](Cc1ccccc1)NC(=O)[C@@H](CCCN=C(N)N)NC(=O)[C@@H](N)Cc1ccc(O)cc1)C(N)=O` [YrFK-NH2], in data set [8] (isolated enzyme trypsin), the half-life at 0.5 mg/mL is roughly 14.6 h.

In data set [13], `N[C@@H](CCC(=O)O)C(=O)O` [^LGlu, L-glutamic acid] gave a viability at 24 h, 50 mM of 37.1%.
